The record followed here is US20090227575A1, “7H-PYRROLO[2,3-H]QUINAZOLINE COMPOUNDS, THEIR USE AS mTOR KINASE AND PI3 KINASE INHIBITORS, AND THEIR [sequence]” (Wyeth, priority 2008, published 2009).

Type in all cases: biochemical
The target of one experiment is PI3K-alpha (Homo sapiens, UniProt P42336). The experiment in a line: PI3K-alpha fluorescence polarization assay. To be noted: read-out: PI3 Kinase α IC50. The protocol:
(§1) The reaction buffer was 20 mM HEPES, pH 7.5, 2 mM MgCl2, 0.05% CHAPS; and 0.01% βME (added fresh). The Stop/Detection Buffer was 100 mM HEPES, pH 7.5, 4 mM EDTA, 0.05% CHAPS; ATP 20 mM in water; PIP2 (diC8, Echelon, Salt Lake City Utah cat #P-4508) 1 mM in water (MW=856.5). The GST-GRP was 1.75 mg/mL or 1.4 mg/mL in 10% glycerol. The Red detector (TAMRA) was 2.5 μM. Nunc 384-well black polypropylene fluorescent plates were used for PI3K assays.
(§2) The assay is run by placing 5 μL of diluted enzyme per well, then 5 μL of diluted compound (or 9.5 μL enzyme then 0.5 μL compound in DMSO) is added and mixed. Then, 10 μL substrate is added to start the reaction. The samples are incubated 30-60 minutes, then the reaction is stopped by adding 20 μL stop/detector mix. PI3K is diluted with reaction buffer (e.g., 5 μL or 7.5 μL PI3K into 620 μL reaction buffer), and 5 μL of diluted enzyme is used per well. A 5 μL portion of reaction buffer or of drug diluted in buffer (e.g., 4 μL/100 so final DMSO is 1% in reaction) is added to each. Pipetting up and down mixes the samples. Alternatively, the enzyme can be diluted to 1215 μL. In this case 9.8 μL is added per well and 0.2 μL compound is added in DMSO.
(§3) To prepare 1 mL of substrate solution, 955 μL reaction buffer, 40 μL PIP2, and 2.5 μL ATP are mixed. 10 μL of substrate is added to each well to start the reaction. […] The stop/detector mix is prepared by mixing 4 μL Red detector and 1.6 μL or 2.0 μL GST-GRP with 1 mL stop buffer, which results in 10 nM probe and 70 nM GST-GRP. 20 μL of the stop/detector mix is added to each well to stop the reaction. The plates are read after 30-90 minutes keeping the red probe solutions dark. For the zero time point, stop/detector mix is added to the enzyme just before adding substrate. For an extra control, stop/detector mix is added to buffer (no enzyme) and substrate or to just buffer (no substrate). […] The recommended reaction has 0.06 μL per 20 μL (0.015 μg/20 μL) or 0.01125 μg/15 μL or 0.75 μg/mL.
(§4) Plates are read on machines with filters for TAMRA. The units are mP with no enzyme controls reading app 190-220 mP units. Fully active enzyme reduces fluorescence polarization down to 70-100 mP after 30 minutes. An active compound raises the mP values halfway to control or to 120-150 mP units.

Another experiment concerns the target Human mTOR (Homo sapiens, UniProt P42345). The experiment in a line: mTOR kinase assay (DELFIA format, purified enzyme). The arrangement: FLAG. To be noted: read-out: TOR Kinase IC50.
For a further experiment, the target named is PI3K-gamma (Homo sapiens, UniProt P48736). The experiment in a line: PI3K-gamma fluorescence polarization assay. To be noted: read-out: PI3 Kinase γ IC50. On the procedure: as §1, §2, §3, §4
Chain of PI3K-gamma (P48736 whole entry, species assumed): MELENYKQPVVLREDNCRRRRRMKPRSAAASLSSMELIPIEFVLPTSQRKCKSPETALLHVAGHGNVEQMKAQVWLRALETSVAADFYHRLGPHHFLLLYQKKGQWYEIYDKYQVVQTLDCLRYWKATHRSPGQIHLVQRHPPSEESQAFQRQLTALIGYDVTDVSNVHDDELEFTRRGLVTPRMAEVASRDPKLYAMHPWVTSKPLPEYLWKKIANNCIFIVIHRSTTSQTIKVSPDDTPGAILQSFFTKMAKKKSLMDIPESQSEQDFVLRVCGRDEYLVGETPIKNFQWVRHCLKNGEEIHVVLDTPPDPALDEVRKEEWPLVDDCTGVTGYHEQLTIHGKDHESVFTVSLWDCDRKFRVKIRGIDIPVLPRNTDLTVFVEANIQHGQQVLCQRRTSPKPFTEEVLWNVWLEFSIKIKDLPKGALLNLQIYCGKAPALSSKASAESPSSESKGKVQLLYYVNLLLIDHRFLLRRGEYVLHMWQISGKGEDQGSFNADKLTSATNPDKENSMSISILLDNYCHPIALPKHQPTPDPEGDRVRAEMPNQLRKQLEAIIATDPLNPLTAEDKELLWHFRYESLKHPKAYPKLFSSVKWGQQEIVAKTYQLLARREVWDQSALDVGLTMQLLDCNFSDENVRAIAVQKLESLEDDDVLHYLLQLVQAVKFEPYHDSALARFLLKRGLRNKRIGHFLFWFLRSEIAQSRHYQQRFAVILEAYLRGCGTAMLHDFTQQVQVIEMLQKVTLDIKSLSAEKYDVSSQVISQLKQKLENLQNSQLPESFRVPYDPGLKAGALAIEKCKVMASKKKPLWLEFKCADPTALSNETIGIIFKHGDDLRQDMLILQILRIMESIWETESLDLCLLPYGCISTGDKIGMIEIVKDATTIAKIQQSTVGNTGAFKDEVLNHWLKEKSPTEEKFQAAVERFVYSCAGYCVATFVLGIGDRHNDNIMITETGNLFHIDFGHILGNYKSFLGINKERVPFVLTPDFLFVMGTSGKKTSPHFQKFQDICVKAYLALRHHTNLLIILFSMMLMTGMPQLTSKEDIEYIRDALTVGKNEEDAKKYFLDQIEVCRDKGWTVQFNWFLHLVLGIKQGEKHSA

Chain of PI3K-alpha (P42336 whole entry, species assumed): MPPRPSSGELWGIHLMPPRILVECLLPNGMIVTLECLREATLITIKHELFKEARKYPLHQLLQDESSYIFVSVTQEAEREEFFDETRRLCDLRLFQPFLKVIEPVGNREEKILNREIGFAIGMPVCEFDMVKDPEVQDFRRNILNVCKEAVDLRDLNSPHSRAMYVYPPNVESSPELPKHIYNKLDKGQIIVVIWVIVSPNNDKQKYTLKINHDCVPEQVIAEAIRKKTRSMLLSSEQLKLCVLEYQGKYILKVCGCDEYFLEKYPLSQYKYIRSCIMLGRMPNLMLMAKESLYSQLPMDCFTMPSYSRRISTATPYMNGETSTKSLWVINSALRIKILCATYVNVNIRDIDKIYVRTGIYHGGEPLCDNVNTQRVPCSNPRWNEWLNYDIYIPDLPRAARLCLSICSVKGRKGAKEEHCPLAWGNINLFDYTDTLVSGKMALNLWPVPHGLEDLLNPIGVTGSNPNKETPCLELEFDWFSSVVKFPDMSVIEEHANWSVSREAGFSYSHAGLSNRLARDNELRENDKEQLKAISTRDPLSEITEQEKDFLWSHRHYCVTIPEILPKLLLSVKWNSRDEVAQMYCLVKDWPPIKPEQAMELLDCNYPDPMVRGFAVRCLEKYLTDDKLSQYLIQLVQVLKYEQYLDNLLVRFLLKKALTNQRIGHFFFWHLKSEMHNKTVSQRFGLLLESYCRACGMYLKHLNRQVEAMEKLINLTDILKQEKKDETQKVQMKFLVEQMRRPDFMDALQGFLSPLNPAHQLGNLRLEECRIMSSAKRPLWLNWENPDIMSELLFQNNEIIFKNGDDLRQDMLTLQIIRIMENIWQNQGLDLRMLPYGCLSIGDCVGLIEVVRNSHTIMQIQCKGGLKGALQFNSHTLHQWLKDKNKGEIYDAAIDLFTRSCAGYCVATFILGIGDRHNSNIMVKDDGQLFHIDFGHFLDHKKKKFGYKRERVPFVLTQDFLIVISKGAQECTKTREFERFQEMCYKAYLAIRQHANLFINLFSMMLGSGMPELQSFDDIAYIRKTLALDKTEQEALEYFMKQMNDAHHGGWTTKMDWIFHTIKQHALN
Chain of PI3K-alpha (P27986 whole entry partner, species assumed): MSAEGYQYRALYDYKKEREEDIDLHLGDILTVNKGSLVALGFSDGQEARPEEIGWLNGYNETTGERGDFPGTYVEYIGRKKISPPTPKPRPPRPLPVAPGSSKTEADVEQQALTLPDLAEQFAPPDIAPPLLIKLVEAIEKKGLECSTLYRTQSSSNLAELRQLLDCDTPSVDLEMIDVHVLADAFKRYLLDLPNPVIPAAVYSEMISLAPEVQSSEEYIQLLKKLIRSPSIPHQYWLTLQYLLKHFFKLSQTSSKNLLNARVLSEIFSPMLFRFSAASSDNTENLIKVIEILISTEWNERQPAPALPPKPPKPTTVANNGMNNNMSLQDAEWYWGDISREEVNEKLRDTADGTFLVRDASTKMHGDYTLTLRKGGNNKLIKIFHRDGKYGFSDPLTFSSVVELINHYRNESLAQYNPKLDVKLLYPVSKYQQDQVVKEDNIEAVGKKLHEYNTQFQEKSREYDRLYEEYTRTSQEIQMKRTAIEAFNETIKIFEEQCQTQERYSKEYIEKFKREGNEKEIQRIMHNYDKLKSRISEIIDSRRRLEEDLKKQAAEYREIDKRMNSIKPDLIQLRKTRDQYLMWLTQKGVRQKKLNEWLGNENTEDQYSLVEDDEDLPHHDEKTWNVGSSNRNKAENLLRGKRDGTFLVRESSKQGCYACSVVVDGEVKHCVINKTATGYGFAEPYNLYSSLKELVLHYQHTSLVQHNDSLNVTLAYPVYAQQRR

Turning to `Cn1ccc2c3nc(-c4ccc(NC(=O)c5cccnc5)cc4)nc(N4CCOCC4)c3ccc21` [Example 17, N-[4-(7-methyl-4-morpholin-4-yl-7H-pyrrolo[2,3-h]quinazolin-2-yl)phenyl]nicotinamide], the results for the IC50 on PI3K-alpha, on Human mTOR and on PI3K-gamma were above 10 µM, 1.4 µM and 9.85 µM, respectively.

Take `Cn1ccc2c3nc(-c4ccc(NC(=O)c5ccncc5)cc4)nc(N4CCOCC4)c3ccc21` [Example 18, N-[4-(7-methyl-4-morpholin-4-yl-7H-pyrrolo[2,3-h]quinazolin-2-yl)phenyl]isonicotinamide]: the IC50 on PI3K-alpha came out at 4.46 µM; on Human mTOR it was 1.45 µM; on PI3K-gamma, 5.62 µM.

For `Cn1ccc2c3nc(-c4ccc(NC(=O)c5ccc(F)cc5)cc4)nc(N4CCOCC4)c3ccc21` [Example 19, 4-fluoro-N-[4-(7-methyl-4-morpholin-4-yl-7H-pyrrolo[2,3-h]quinazolin-2-yl)phenyl]benzamide], the values for the IC50 on PI3K-alpha, on Human mTOR and on PI3K-gamma were 12 µM, 1.25 µM and 6.17 µM, respectively.

For the compound `CCOC(=O)Nc1ccc(-c2nc(N3CCOCC3)c3ccc4c(ccn4C)c3n2)cc1` [Example 20, ethyl [4-(7-methyl-4-morpholin-4-yl-7H-pyrrolo[2,3-h]quinazolin-2-yl)phenyl]carbamate], the IC50 at PI3K-alpha is 3.31 µM; on Human mTOR, 0.39 µM; at PI3K-gamma it was 2.09 µM.

As for `Cn1ccc2c3nc(-c4ccc(NS(=O)(=O)c5ccccc5)cc4)nc(N4CCOCC4)c3ccc21` [Example 22, N-[4-(7-methyl-4-morpholin-4-yl-7H-pyrrolo[2,3-h]quinazolin-2-yl)phenyl]benzenesulfonamide], the concentration for half-maximal inhibition (IC50) on PI3K-alpha came to 8.4 µM; at Human mTOR it was 5.3 µM; at PI3K-gamma, 6.16 µM.

Consider `Cn1ccc2c3nc(-c4cccc(C=O)c4)nc(N4CCOCC4)c3ccc21` [Example 23, 3-(7-methyl-4-morpholin-4-yl-7H-pyrrolo[2,3-h]quinazolin-2-yl)benzaldehyde], for which the 50% inhibitory concentration (IC50) at PI3K-alpha came to 5.33 µM; on Human mTOR, 0.32 µM; at PI3K-gamma, 9.5 µM.

On to `CC(O)c1cccc(-c2nc(N3CCOCC3)c3ccc4c(ccn4C)c3n2)c1` (stereo not drawn) [Example 24, 1-[3-(7-methyl-4-morpholin-4-yl-7H-pyrrolo[2,3-h]quinazolin-2-yl)phenyl]ethanol], for which the IC50 on PI3K-alpha was 2.35 µM; at Human mTOR, 1.65 µM; at PI3K-gamma, above 10 µM.

Consider `CCC(O)c1cccc(-c2nc(N3CCOCC3)c3ccc4c(ccn4C)c3n2)c1` (stereo not drawn) [Example 25, 1-[3-(7-methyl-4-morpholin-4-yl-7H-pyrrolo[2,3-h]quinazolin-2-yl)phenyl]propan-1-ol], for which the IC50 was 7.55 µM at PI3K-alpha, 3.05 µM on Human mTOR and above 10 µM at PI3K-gamma.

On to `C=CC(O)c1cccc(-c2nc(N3CCOCC3)c3ccc4c(ccn4C)c3n2)c1` (stereo not drawn) [Example 26, 1-[3-(7-methyl-4-morpholin-4-yl-7H-pyrrolo[2,3-h]quinazolin-2-yl)phenyl]prop-2-en-1-ol], for which the half-inhibitory concentration (IC50) at PI3K-alpha was 5.42 µM; on Human mTOR, 2.1 µM; at PI3K-gamma it was above 10 µM.

In the case of `C=CCC(O)c1cccc(-c2nc(N3CCOCC3)c3ccc4c(ccn4C)c3n2)c1` (stereo not drawn) [Example 27, 1-[3-(7-methyl-4-morpholin-4-yl-7H-pyrrolo[2,3-h]quinazolin-2-yl)phenyl]but-3-en-1-ol], the results for the concentration for half-maximal inhibition (IC50) on PI3K-alpha, at Human mTOR and on PI3K-gamma were 6.59 µM, 2.8 µM and 6.66 µM, respectively.

On to `CC(C)CC(O)c1cccc(-c2nc(N3CCOCC3)c3ccc4c(ccn4C)c3n2)c1` (stereo not drawn) [Example 28, 3-methyl-1-[3-(7-methyl-4-morpholin-4-yl-7H-pyrrolo[2,3-h]quinazolin-2-yl)phenyl]butan-1-ol], for which the IC50 at PI3K-alpha came out at 2.51 µM; on Human mTOR, 2.7 µM; on PI3K-gamma, 4.52 µM.

Take `Cn1ccc2c3nc(-c4cccc(C(O)c5ccccc5)c4)nc(N4CCOCC4)c3ccc21` (stereo not drawn) [Example 29, [3-(7-methyl-4-morpholin-4-yl-7H-pyrrolo[2,3-h]quinazolin-2-yl)phenyl](phenyl)methanol]: the IC50 on PI3K-alpha is 2.97 µM; at Human mTOR, 3.8 µM; on PI3K-gamma, 4.07 µM.

`CN(C)CCn1ccc2c3nc(-c4cccc(CO)c4)nc(N4CCOCC4)c3ccc21` [Example 30, (3-{7-[2-(dimethylamino)ethyl]-4-morpholin-4-yl-7H-pyrrolo[2,3-h]quinazolin-2-yl}phenyl)methanol]: the IC50 at PI3K-alpha was 0.455 µM; at Human mTOR, 9.15 µM; at PI3K-gamma, 4.95 µM.

Take `CN(C)CCn1ccc2c3nc(-c4cccc(OCc5ccccc5)c4)nc(N4CCOCC4)c3ccc21` [Example 31, 2-{2-[3-(benzyloxy)phenyl]-4-morpholin-4-yl-7H-pyrrolo[2,3-h]quinazolin-7-yl}-N,N-dimethylethanamine]: the IC50 on PI3K-alpha is 4.03 µM; at Human mTOR it was above 20 µM; at PI3K-gamma, 2.48 µM.

With `CN(C)CCn1ccc2c3nc(-c4cccc(O)c4)nc(N4CCOCC4)c3ccc21` [Example 32, 3-{7-[2-(dimethylamino)ethyl]-4-morpholin-4-yl-7H-pyrrolo[2,3-h]quinazolin-2-yl}phenol], the IC50 is 0.322 µM at PI3K-alpha, 4.55 µM on Human mTOR and 3.62 µM on PI3K-gamma.

Consider `CN(C)CCn1ccc2c3nc(-c4ccc(NC(=O)Nc5ccncc5)cc4)nc(N4CCOCC4)c3ccc21` [Example 33, 1-(4-{7-[2-(dimethylamino)ethyl]-4-morpholin-4-yl-7H-pyrrolo[2,3-h]quinazolin-2-yl}phenyl)-3-pyridin-4-ylurea], for which the IC50 at PI3K-alpha was 0.222 µM; on Human mTOR it was 0.015 µM; on PI3K-gamma, 0.862 µM.

Turning to `CN(C)CCn1ccc2c3nc(-c4cnc(N)nc4)nc(N4CCOCC4)c3ccc21` [Example 34, 5-{7-[2-(dimethylamino)ethyl]-4-morpholin-4-yl-7H-pyrrolo[2,3-h]quinazolin-2-yl}pyrimidin-2-amine], the values for the 50% inhibitory concentration (IC50) at PI3K-alpha, on Human mTOR and on PI3K-gamma were 0.201 µM, 1.3 µM and 3.19 µM, respectively.

Take `Cn1ccc2c3nc(-c4cccc(O)c4)nc(N4CCOCC4)c3ccc21` [Example 35, 3-(7-methyl-4-morpholin-4-yl-7H-pyrrolo[2,3-h]quinazolin-2-yl)phenol]: the IC50 on PI3K-alpha is 0.174 µM; at Human mTOR, 0.41 µM; at PI3K-gamma, 2.23 µM.

As to `COC(=O)c1ccc(-c2nc(N3CCOCC3)c3ccc4c(ccn4C)c3n2)cc1` [Example 36, Methyl 4-(7-methyl-4-morpholin-4-yl-7H-pyrrolo[2,3-h]quinazolin-2-yl)benzoate], the IC50 came out at 1.76 µM at PI3K-alpha, 1.6 µM on Human mTOR and 4 µM at PI3K-gamma.

Take `Cn1ccc2c3nc(-c4ccc(N)nc4)nc(N4CCOCC4)c3ccc21` [Example 42, 5-(7-methyl-4-morpholin-4-yl-7H-pyrrolo[2,3-h]quinazolin-2-yl)pyridin-2-amine]: the IC50 came to 0.616 µM at PI3K-alpha, 0.63 µM on Human mTOR and 3.59 µM at PI3K-gamma.

As to `Cn1ccc2c3nc(-c4cnc(N)nc4)nc(N4CCOCC4)c3ccc21` [Example 43, 5-(7-methyl-4-morpholin-4-yl-7H-pyrrolo[2,3-h]quinazolin-2-yl)pyrimidin-2-amine], the IC50 stood at 0.048 µM at PI3K-alpha, 0.247 µM on Human mTOR and 0.426 µM on PI3K-gamma.

For the compound `CC(=O)NCc1cccc(-c2nc(N3CCOCC3)c3ccc4c(ccn4C)c3n2)c1` [Example 44, N-[3-(7-methyl-4-morpholin-4-yl-7H-pyrrolo[2,3-h]quinazolin-2-yl)benzyl]acetamide], the IC50 at PI3K-alpha worked out at 9.36 µM; at Human mTOR, 4 µM; on PI3K-gamma it was 9.5 µM.

For the compound `Cn1ccc2c3nc(-c4cccc5[nH]ccc45)nc(N4CCOCC4)c3ccc21` [Example 45, 2-(1H-indol-4-yl)-7-methyl-4-morpholin-4-yl-7H-pyrrolo[2,3-h]quinazoline], the half-maximal inhibitory concentration (IC50) at PI3K-alpha came to 2.46 µM; on Human mTOR, 1.13 µM; on PI3K-gamma it was 2.83 µM.
